Where two headings read alike, the source gives them in different places.
Target: T1, human α7 nAChR (Homo sapiens, UniProt P36544)
T1 construct: host or cells: HEK
Test: Automated patch-clamp electrophysiology functional assay (Assay A)
Format: cell-based
Conditions: HEK cell line stably expressing human RIC-3 and human α7, IonFlux HT whole-cell population patch, with or without 40 μM acetylcholine
Description: The α7 nAChR positive allosteric modulator (PAM) activity of the present compounds may be tested using assays known in the art. The α7 nAChR PAMs described herein have activities in an automated patch-clamp electrophysiology functional assay as described in the examples. The assay was performed using the IonFlux HT in a whole-cell, population patch configuration. See Golden et al. Assay Drug Dev. Technol. (2011) 9:608-619. The compounds were assessed for their ability to modulate the function of the human α7 nAChR stably expressed in a HEK cell line both in the presence, and in the absence of the natural α7 agonist acetylcholine. By performing a series of such measurements at different concentrations, the effective concentration of the α7 nAChR PAMs (EC50) was determined. See Spencer et al. Assay Drug Dev. Technol. (2012) 10:313-324.
Direct activation of α7 (agonism), and potentiation of acetylcholine-evoked α7 currents was determined as follows:
Automated patch-clamp electrophysiology was performed using the IonFlux HT (Fluxion Biosciences Inc., San Francisco, CA) in the whole-cell, population patch configuration. Test compounds were assessed for their ability to modulate the function of the α7 nicotinic acetylcholine receptor both in the presence, and in the absence of the natural α7 agonist acetylcholine. A HEK cell line stably expressing both human RIC-3 and human α7 (PrecisION hnAChR α7/RIC-3, Eurofins Pharma, St. Charles, MO) was cultured in 175 cm^2 triple-layer tissue culture flasks to no more than 90% confluency in DMEM/F-12 growth media supplemented with 10% heat-inactivated fetal bovine serum, 1% non-essential amino acids, 0.625 μg/mL Puromycin, and 400 μg/mL Geneticin. Immediately prior to assay, cells were detached by first aspirating growth media, rinsing with Dulbecco's phosphate buffered saline, and then adding 10 mL of Accutase (Innovative Cell Technologies, San Diego, CA) to the flask and then incubating at 37° C. for 5 minutes. Detached cells were then recovered by the addition of 40 mL of CHO-serum-free media supplemented with 25 mM HEPES, and rocked gently in a 50 mL conical tube for 20 minutes prior to patch-clamp assay. After recovery, cells were pelleted by centrifugation at 1,000 RPM for 1 minute in a compact bench top centrifuge; recovery media was aspirated and cells were resuspended in external recording solution (150 mM NaCl, 5 mM KCl, 2 mM CaCl2, 1 mM MgCl2, 10 mM HEPES, 12 mM dextrose) to a density of 5.0×10^6 cells/mL. The cell suspension was added to the cell inlet wells on an IonFlux HT population patch plate which had previously been rinsed and primed with deionized H2O. Test compounds were serially diluted in DMSO and then resuspended to the final test concentration in external recording solution, with, or without 40 μM acetylcholine added to the external recording solution; test compounds were then transferred to the IonFlux HT population patch plate. Internal recording solution (110 mM TrisPO4, 28 mM TrisBase, 0.1 mM CaCl2, 2 mM MgCl2, 11 mM EGTA, 4 mM MgATP) was added to the internal recording solution inlet wells on the IonFlux HT patch plate previously loaded with cells and test compounds, and the plate loaded into the IonFlux HT instrument. A protocol was executed on the IonFlux HT to trap the cells, break into the cells, and establish the whole-cell recording configuration; cells were voltage-clamped at a holding potential of −60 mV for the duration of the experiment, all experiments were conducted at room temperature, and the IonFlux HT injection pressure was 8 psi for solution applications. Upon establishing the whole-cell configuration, external recording solution was perfused into the recording chambers for 120 seconds and then 40 μM acetylcholine was applied for 1 second and immediately washed off with external recording solution for 60 seconds. […]

T1 sequence (P36544 23-502): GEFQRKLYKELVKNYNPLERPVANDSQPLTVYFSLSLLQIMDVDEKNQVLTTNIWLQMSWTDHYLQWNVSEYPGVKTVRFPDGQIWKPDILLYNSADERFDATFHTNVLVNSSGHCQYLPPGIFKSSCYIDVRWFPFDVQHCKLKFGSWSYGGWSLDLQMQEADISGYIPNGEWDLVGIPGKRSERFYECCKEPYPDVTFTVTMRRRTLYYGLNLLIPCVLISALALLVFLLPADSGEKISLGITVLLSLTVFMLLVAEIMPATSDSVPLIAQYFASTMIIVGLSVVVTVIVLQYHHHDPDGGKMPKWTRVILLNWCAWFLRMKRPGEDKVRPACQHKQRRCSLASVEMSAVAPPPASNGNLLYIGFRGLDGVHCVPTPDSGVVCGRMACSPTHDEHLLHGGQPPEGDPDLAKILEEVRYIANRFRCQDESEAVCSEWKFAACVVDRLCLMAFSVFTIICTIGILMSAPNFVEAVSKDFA

SMILES	EC50 (read-out: α7 nAChR EC50)	EC50 (read-out: α7 nAChR Potency)
NS(=O)(=O)N1CCC2(CC1)C(CSc1ccc(F)cc1C(F)(F)F)C2(F)F (stereo not shown) [Example 17, 1,1-Difluoro-2-({[4-fluoro-2-(trifluoromethyl)phenyl]sulfanyl}methyl)-6-azaspiro[2.5]octane-6-sulfonamide]	720 nM	500 to 5000 nM
NS(=O)(=O)N1CCC2(CC1)CC2COc1cc(F)ccc1C(F)(F)F (single isomer, unassigned) [Example A15, 1-{[5-fluoro-2-(trifluoromethyl)phenoxy]methyl}-6-azaspiro[2.5]octane-6-sulfonamide]	470 nM	100 to 500 nM
NS(=O)(=O)N1CCC2(CC1)C[C@H]2COc1cccc(NCC(F)(F)F)n1 [Example 10, (1R)-1-[({6-[(2,2,2-Trifluoroethyl)amino]pyridin-2-yl}oxy)methyl]-6-azaspiro[2.5]octane-6-sulfonamide]	74 nM	≤ 100 nM
Cn1nc(C(F)(F)F)cc1OCC1C(F)(F)C12CCN(S(N)(=O)=O)CC2 (single isomer, unassigned) [Example A11, 1,1-difluoro-2-({[1-methyl-3-(trifluoromethyl)-1H-pyrazol-5-yl]oxy}methyl)-6-azaspiro[2.5]octane-6-sulfonamide]	90 nM	≤ 100 nM
NS(=O)(=O)N1CCC2(CC1)C[C@@H]2COc1cccc(OCC2CC2)n1 [Example A18, (1S)-1-({[6-(cyclopropylmethoxy)pyridin-2-yl]oxy}methyl)-6-azaspiro[2.5]octane-6-sulfonamide]	300 nM	100 to 500 nM
NS(=O)(=O)N1CCC2(CC1)C(COc1noc(-c3ccccc3)n1)C2(F)F (single isomer, unassigned) [Example 6, 1,1-Difluoro-2-{[(5-phenyl-1,2,4-oxadiazol-3-yl)oxy]methyl}-6-azaspiro[2.5]octane-6-sulfonamide]	49 nM	≤ 100 nM
Cc1ccn(-c2cccc(OC[C@@H]3CC34CCN(S(N)(=O)=O)CC4)n2)n1 [Example A50, (1R)-1-({[6-(3-methyl-1H-pyrazol-1-yl)pyridin-2-yl]oxy}methyl)-6-azaspiro[2.5]octane-6-sulfonamide]	250 nM	100 to 500 nM
COc1cccc(OCC2CC23CCN(S(N)(=O)=O)CC3)n1 (racemic) [Example A27, 1-{[(6-methoxypyridin-2-yl)oxy]methyl}-6-azaspiro[2.5]octane-6-sulfonamide]		500 to 5000 nM
NS(=O)(=O)N1CCC2(CC1)C[C@H]2COc1cccc(-c2ccccc2)n1 [Example A57, (1R)-1-{[(6-phenylpyridin-2-yl)oxy]methyl}-6-azaspiro[2.5]octane-6-sulfonamide]	69 nM	≤ 100 nM
NS(=O)(=O)N1CCC2(CC1)CC2COc1cccc(OC(F)F)c1 (racemic) [Example A23, 1-{[3-(difluoromethoxy)phenoxy]methyl}-6-azaspiro[2.5]octane-6-sulfonamide]	150 nM	100 to 500 nM
NS(=O)(=O)N1CCC2(CC1)C(COc1ccc(F)cc1C(F)(F)F)C2(F)F (single isomer, unassigned) [Example A10, 1,1-difluoro-2-{[4-fluoro-2-(trifluoromethyl)phenoxy]methyl}-6-azaspiro[2.5]octane-6-sulfonamide]	1500 nM	500 to 5000 nM
NS(=O)(=O)N1CCC2(CC1)C(COc1ccnc(OC(F)F)c1)C2(F)F (single isomer, unassigned) [Example 3, 2-({[2-(Difluoromethoxy)pyridin-4-yl]oxy}methyl)-1,1-difluoro-6-azaspiro[2.5]octane-6-sulfonamide]	930 nM	500 to 5000 nM
N#Cc1cccc(OC[C@@H]2CC23CCN(S(N)(=O)=O)CC3)n1 [Example A47, (1R)-1-{[(6-cyanopyridin-2-yl)oxy]methyl}-6-azaspiro[2.5]octane-6-sulfonamide]	1100 nM	500 to 5000 nM
NS(=O)(=O)N1CCC2(CC1)C(COc1cccc(OCC(F)(F)F)c1)C2(F)F (single isomer, unassigned) [Example A30, 1,1-difluoro-2-{[3-(2,2,2-trifluoroethoxy)phenoxy]methyl}-6-azaspiro[2.5]octane-6-sulfonamide]	58 nM	≤ 100 nM
NS(=O)(=O)N1CCC2(CC1)CC2COc1ccccc1OC(F)F (single isomer, unassigned) [Example A9, 1-{[2-(difluoromethoxy)phenoxy]methyl}-6-azaspiro[2.5]octane-6-sulfonamide]	650 nM	500 to 5000 nM
NS(=O)(=O)N1CCC2(CC2COc2noc(-c3ccccc3)n2)C(F)(F)C1 (racemic) [Example A22, 4,4-difluoro-1-{[(5-phenyl-1,2,4-oxadiazol-3-yl)oxy]methyl}-6-azaspiro[2.5]octane-6-sulfonamide]	3100 nM	500 to 5000 nM
NS(=O)(=O)N1CCC2(CC1)C[C@H]2COc1cccc(OCC2CC2)n1 [Example A17, (1R)-1-({[6-(cyclopropylmethoxy)pyridin-2-yl]oxy}methyl)-6-azaspiro[2.5]octane-6-sulfonamide]	130 nM	100 to 500 nM
NS(=O)(=O)N1CCC2(CC1)C[C@H]2COc1cccc(OCC(F)(F)F)n1 [Example A37, (1R)-1-({[6-(2,2,2-trifluoroethoxy)pyridin-2-yl]oxy}methyl)-6-azaspiro[2.5]octane-6-sulfonamide]	74 nM	≤ 100 nM
NS(=O)(=O)N1CCC2(CC1)CC2COc1ccnc(OCC(F)(F)F)c1 (racemic) [Example A32, 1-({[2-(2,2,2-trifluoroethoxy)pyridin-4-yl]oxy}methyl)-6-azaspiro[2.5]octane-6-sulfonamide]	140 nM	100 to 500 nM
COc1ccc(Cl)cc1NC(=O)[C@@H]1C(F)(F)C12CCN(S(N)(=O)=O)CC2 [Example 15, (1R)—N-(5-Chloro-2-methoxyphenyl)-2,2-difluoro-6-sulfamoyl-6-azaspiro[2.5]octane-1-carboxamide]	63 nM	≤ 100 nM
NS(=O)(=O)N1CCC2(CC1)C(COc1ccnc(OCC(F)(F)F)c1)C2(F)F (single isomer, unassigned) [Example A33, 1,1-difluoro-2-({[2-(2,2,2-trifluoroethoxy)pyridin-4-yl]oxy}methyl)-6-azaspiro[2.5]octane-6-sulfonamide]	20 nM	≤ 100 nM
Cc1cc(C)n(-c2cccc(OC[C@@H]3CC34CCN(S(N)(=O)=O)CC4)n2)n1 [Example A19, (1R)-1-({[6-(3,5-dimethyl-1H-pyrazol-1-yl)pyridin-2-yl]oxy}methyl)-6-azaspiro[2.5]octane-6-sulfonamide]	190 nM	100 to 500 nM
COc1cc(F)ccc1OC[C@@H]1CC12CCN(S(N)(=O)=O)CC2 [Example A6, (1R)-1-[(4-fluoro-2-methoxyphenoxy)methyl]-6-azaspiro[2.5]octane-6-sulfonamide]	940 nM	500 to 5000 nM
COc1ccccc1NC(=O)[C@@H]1CC12CCN(S(N)(=O)=O)CC2 [Example B1, (1R)—N-(2-methoxyphenyl)-6-sulfamoyl-6-azaspiro[2.5]octane-1-carboxamide]	1400 nM	500 to 5000 nM
COc1ccc(Cl)cc1NC[C@@H]1C(F)(F)C12CCN(S(N)(=O)=O)CC2 [Example A59, (2R)-2-{[(5-chloro-2-methoxyphenyl)amino]methyl}-1,1-difluoro-6-azaspiro[2.5]octane-6-sulfonamide]	22 nM	≤ 100 nM

Reference: patent publication US12331022B2, “Spiropiperidine allosteric modulators of nicotinic acetylcholine receptors” (Merck Sharp & Dohme LLC, priority 2019, dated 2025)
